Test results: paper PMC8000724, “Trans-Epithelial Transport, Metabolism, and Biological Activity Assessment of the Multi-Target Lupin Peptide [sequence] (P5) and Its Metabolite [sequence] (P5-Met)” (Nutrients, 2021)

Columns and labels:
[1] = test system: differentiated Caco-2 cells; test: Trans-epithelial transport across differentiated Caco-2 cell monolayer; type: in vitro ADME, human; conditions: for Amount in the BL compartment after 30 min: alone, 500 μM in AP, Caco-2 AP to BL
Protocol: Human intestinal Caco-2 cells, obtained from INSERM (Paris, France), where cultured according to a published protocol. For differentiation, they were seeded on polycarbonate filters, 12 mm diameter, 0.4 µm pore diameter (Transwell, Corning Inc., Lowell, MA, US) at a 3.5 × 10^5 cells/cm^2 density in complete medium supplemented with 10% FBS in both AP and BL compartments for 2 d to allow the formation of a confluent cell monolayer. Starting from day three after seeding, cells were transferred to FBS-free medium in both compartments, supplemented with ITS (final concentration 10 mg/L insulin (I), 5.5 mg/L transferrin (T), 6.7 μg/L sodium selenite (S); GIBCO-Invitrogen, San Giuliano Milanese, Italy) only in the basolateral (BL) compartment, and allowed to differentiate for 18–21 days with regular medium changes three times weekly.
The transepithelial electrical resistance (TEER) of differentiated Caco-2 cells was measured at 37 °C using the voltmeter apparatus Millicell (Millipore Co., Billerica, MA, USA), immediately before and at the end of the transport experiments. In addition, at the end of transport experiments, cells were incubated from the AP side with 1 mM phenol-red in PBS containing Ca^++ (0.9 mM) and Mg^++ (0.5 mM) for 1 h at 37 °C, to monitor the paracellular permeability of the cell monolayer. The BL solutions were then collected and NaOH (70 µL, 0.1 N) was added before reading the absorbance at 560 nm by a microplate reader Synergy H1 from Biotek (Winooski, VT, USA). Phenol-red passage was quantified using a standard phenol-red curve. Only filters showing TEER values and phenol red passages similar to untreated control cells were considered for peptide transport analysis.
Prior to experiments, the cell monolayer integrity and differentiation were checked by TEER measurement as described in detail above. Peptide trans-epithelial passage was assayed in differentiated Caco-2 cells in transport buffer solution (137 mM NaCl, 5.36 mM KCl, 1.26 mM CaCl2, and 1.1 mM MgCl2, 5.5 mM glucose) according to previously described conditions. In order to reproduce the pH conditions existing in vivo in the small intestinal mucosa, the apical (AP) solutions were maintained at pH 6.0 (buffered with 10 mM morpholinoethane sulfonic acid), and the basolateral (BL)solutions were maintained at pH 7.4 (buffered with 10 mM […]). Prior to transport experiments, cells were washed twice with 500 µL PBS containing Ca^++ and Mg^++. Peptide transportation by mature Caco-2 cells was assayed by loading the AP compartment with P5 alone, in mixture with […] (P3) and […] (P7), and/or P5-met (500 μM) in the AP transport solution (500 µL) and the BL compartment with the BL transport solution (700 µL). The plates were incubated at 37 °C and the BL solutions were collected at different time points (i.e., 15, 30, 60, 90, and 120 min) and replaced with fresh solutions pre-warmed at 37 °C. All BL and AP solutions collected at the end of the transport experiment were stored at −80 °C prior to analysis. Three independent transport experiments were performed, each in duplicate. In order to assess the involvement of transcytotic process in peptides passage, parallel transport experiments were performed in the presence of 500 nM wortmannin in both the AP and BL compartment, over 60 min incubation time.
The medium collected at the end of transport experiments from AP and BL chambers (500 µL and 700 µL, respectively) were freeze-dried and residues were solubilized in HPLC water (100 µL). Samples were desalted with C18 resin ZipTip by using 80% ACN, 0.1% FA as eluent (Millipore Corporation, Bedford, MA, USA). Each sample was lyophilized under speed-vacuum for 5 h at 30°C and re-dissolved in 50 μL (0.1% formic acid), before MS analysis. Purified BL samples were analyzed on a SL IT mass spectrometer interfaced with a HPLC- Chip Cube source (Agilent Technologies, Palo Alto, CA, USA). […]

LDLR = test: Western blot, LDLR protein level in HepG2 cells; type: cell-based, human; conditions: HepG2, 50 µM, 24 h, mean ± SD
Protocol: The HepG2 cell line was bought from ATCC (HB-8065, ATCC from LGC Standards, Milan, Italy) and was cultured in DMEM high glucose with stable L-glutamine, supplemented with 10% FBS, 100 U/mL penicillin, 100 µg/mL streptomycin (complete growth medium) with incubation at 37 °C under 5% CO2 atmosphere.
Immunoblotting experiments were performed using optimized protocol. A total of 1.5 × 10^5 HepG2 cells/well (24-well plate) were treated with 50 μM of P5 and P5-met for 24 h. After each treatment, the supernatants were collected and stored at −20°C; cells were scraped in 40 µL ice-cold lysis buffer (RIPA buffer + inhibitor cocktail + 1:100 PMSF + 1:100 Na-orthovanadate + 1:1000 β-mercaptoethanol) and transferred in ice-cold microcentrifuge tubes. […] Total proteins were quantified by the Bradford’s method and 50 μg of total proteins loaded on a pre-cast 7.5% Sodium Dodecyl Sulfate-Polyacrylamide (SDS-PAGE) gel at 130 V for 45 min. […] Target proteins, on milk or BSA blocked membrane, were detected by primary antibodies as follows: anti-SREBP-2, anti-LDLR, anti-HMGCoAR, anti-PCSK9, anti HNF1-α and anti-β-actin. Secondary antibodies conjugated with HRP and a chemiluminescent reagent were used to visualize target proteins and their signal was quantified using the Image Lab Software (Biorad, Hercules, CA, USA). […]

HepG2 cells = test: Fluorescent LDL uptake by HepG2 cells; type: cell-based, human; conditions: mean ± SD
Protocol: HepG2 cells (3 × 10^4/well) were seeded in 96-well plates and kept in complete growth medium for 2 days before treatment. The third day, cells were washed with PBS and then starved overnight (O/N) in DMEM without FBS and antibiotics. After starvation, they were treated with 4.0 μg/mL PCSK9 and 4.0 μg/mL PCSK9 + P5 and P5-met peptides (50.0 µM), and vehicle (H2O) for 2 h with at 37 °C under 5% CO2 atmosphere. At the end of the treatment, the culture medium was replaced with 50 μL/well LDL-DyLight™ 550 working solution (Cayman Chemical Company, Ann Arbor, MI, USA) prepared in DMEM without FBS and antibiotics. The cells were additionally incubated for 2 h at 37 °C and then the culture medium was aspirated and replaced with PBS (100 μL/well). The degree of LDL uptake was measured using the Synergy H1 fluorescent plate reader (Winooski, VT, USA) (excitation and emission wavelengths 540 and 570 nm, respectively). Fluorescent LDL-uptake was finally assessed following optimized protocol.

Amount in the BL compartment after 30 min ([1]; AP pH 6.0 / BL pH 7.4, 37 °C, LC-MS/MS MRM, mean ± SD of three independent experiments): 0.54 ± 0.02 µg
Amount in the BL compartment after 30 min ([1]; conversion of the µg value): 0.613 nmol
Substance: H-LPKHSDAD-OH [Peptide P5-met]
Effect of the transcytosis inhibitor wortmannin on transport across Caco-2 cells ([1]; 500 nM wortmannin in AP and BL compartments, 60 min, HPLC-Chip MS of BL compartment): transported also in the presence of wortmannin
LDLR protein level versus the control (LDLR): 150.4 ± 29.2%
Ability of HepG2 cells to absorb extracellular LDL versus the control (HepG2 cells; HepG2, 50 µM, fluorescent LDL-DyLight 550, without added PCSK9): 181.2 ± 40.1%
LDL uptake by HepG2 cells restored, co-incubation with PCSK9 (HepG2 cells; peptide 50 µM + PCSK9 4 µg/mL, 2 h, % of untreated cells): 104.1 ± 8.5%
